Data set [1] relates to P. aeruginosa ATCC 10145. Put plainly: CFU-assay, P. aeruginosa-cidal activity. The class given is cell-based, Pseudomonas aeruginosa.
Data set [2] has as its system Candida albicans ATCC 24433. The data set is described as follows: CFU-assay, Candida albicans-cidal activity. The class given is cell-based. The protocol: Thus, within the present invention, the antimicrobial activity is generally measured in nutrient deficient 10 mM sodium phosphate buffer pH 5.5, containing 0.25% glucose, using the CFU-assay according to Steinberg and Lehrer, 1997 (supra), unless otherwise indicated. The CFU-assay allows determination of the minimal bactericidal concentration (MBC, e.g., MBC90 and MBC100; i.e. the concentration of compound required to achieve a specified reduction in bacterial cell number (microbial death or killing)). […]
HR 1-17 affects C. albicans ATCC 24433 with highest activity at pH 5.5 in the absence of TSB in the medium (see Tables 12, 24). […] Furthermore, the substitution of any of the Arg residues by Gly leads to a dramatic reduction or loss of candidacidal activity (see Table 24).

The subject of data set [3] is S. aureus ATCC 6538. Put plainly: CFU-assay, S. aureus-cidal activity. The class given is cell-based, Staphylococcus aureus. The protocol:
Thus, within the present invention, the antimicrobial activity is generally measured in nutrient deficient 10 mM sodium phosphate buffer pH 5.5, containing 0.25% glucose, using the CFU-assay according to Steinberg and Lehrer, 1997 (supra), unless otherwise indicated. The CFU-assay allows determination of the minimal bactericidal concentration (MBC, e.g., MBC90 and MBC100; i.e. the concentration of compound required to achieve a specified reduction in bacterial cell number (microbial death or killing)).
Various peptides corresponding to repeat domains of hornerin (HR 1-11: HRNR 2606-2628; HR 1-17: HRNR 2656-2684 and HR 1-18: HRNR 2656-2677) were tested for P. aeruginosa ATCC 10145-cidal activity in 10 mM Na-phosphate buffer pH 5.5, containing 0.25% glucose by counting the numbers of colonies of surviving bacteria at serial, twofold dilutions from 300 μg/ml down to 19 ng/ml of each peptide (CFU-assay; Steinberg and Lehrer, 1997, Methods Mol. Biol. 78, 169-186).
Staphylococcus aureus is a major skin pathogen, which causes skin infections, in particular in atopic dermatitis. The sensitivity of S. aureus ATCC 6538 towards several CIDAMPs was assessed using the CFU-assay as above (see Example 1). HR 1-18, which lacks S. aureus.-bactericidal activity, is converted in a S. aureus-cidal peptide, when all His are replaced by Arg (HR 1-18 4H-4R; see Table 13 and FIG. 9). […] HR 1-18 4H-4R is rich in Ser and Arg and contains a single Leu residue. When this single Leu was replaced by Gly in S. aureus-cidal HR 1-18 4H-4R (forming HR 1-18 4H-4R/L-G), S. aureus-cidal activity was abolished at both pH 7.0 and pH 5.5 (see Table 13 and FIG. 9).

Data set [4] can be described thus: Cytotoxicity (resazurin) assay. The protocol: For the cytotoxicity (resazurin) assay, HEK293 cells were counted manually in a Neubauer haemocytometer and plated at a density of 4000 cells/well into each well of the 384-well plates containing the 25×(2 μl) concentrated compounds. The medium used was Dulbecco's modified eagle medium (DMEM) supplemented with 10% foetal bovine serum (FBS). Cells were incubated together with the compounds for 20 h at 37° C., 5% CO2. To measure cytotoxicity, 5 μl (equals 100 μM final) resazurin was added to each well after incubation, and incubated for further 3 h at 37° C. with 5% CO2.
After final incubation fluorescence intensity was measured as F ex 560/10 nm, em 590/10 nm (F560/590) using a Tecan M1000 Pro monochromator plate reader. […] The concentration dependent percentage cytotoxicity was fitted to a dose response function (using Pipeline Pilot) and CC50 values determined.
For orientation: Resazurin is reduced to fluorescent resorufin, in cell work by metabolically active cells.

The nature of data set [5]: Hemolysis assay. The class given is cell-based. The method, then:
For the hemolysis assays EDTA-blood was centrifuged at 800×g for 10 min, and the plasma and buffy coat were removed. The erythrocytes were washed three times and resuspended in 5% PBS, pH 7.4. The cells were then incubated with end-over-end rotation for 1 h at 37° C. in the presence of different concentrations of peptides (0, 3, 10, 30, 60 μm). 0.1% Triton X-100 (Sigma-Aldrich) served as positive control. The samples were then centrifuged at 800×g for 10 min.
The absorbance of hemoglobin release was measured at 540 nm and is expressed as % of Triton X-100-induced hemolysis. These values of triplicates were plotted with Graph Pad Prism 4 as a dose response curve and the CC50 was determined.

Data set [6] has as its system C. albicans ATCC 928. The conditions noted are these: standard conditions at pH 7.4; activity at concentration <32 pg/ml.
The test system of data set [7] is C. neoformans. The conditions noted are these: standard conditions at pH 7.4; activity at concentration <32 pg/ml.

Where “and” joins values, the source holds several entries; their conditions need not be identical. Equal entries are not always repeated. Residues, ends and D or L forms follow the SMILES beside them. Primed or numbered codes have the meaning given here. No end group written: not given here. FITC′ = fluorescein isothiocyanate

For “GGHGSGLGHSSSHGQHGSGSGRSSSRGPY (Modified peptide derived from human hornerin (HR 1-17 R2657G))”, the MBC90 in data set [1] (pH 5.0, 0.25% glucose) is 0.0375 µg/mL; in data set [2] (pH 5.5, 1% TSB), greater than 300 µg/mL. Moreover, the MBC100 was 0.3 µg/mL in data set [1] (pH 5.0, 0.25% glucose) and greater than 300 µg/mL in data set [2] (pH 5.5, 1% TSB).
In the case of “HGSRSGQSSRGERHGSSSGSSSH (Peptide derived from human hornerin (HR 1-11))”, the MBC90 in data set [1] (pH 5.0, 0.25% glucose) came out at 0.075 µg/mL; in data set [1] (pH 5.5, 1% TSB) it was 2.35 µg/mL; in data set [2] (pH 5.5, 0.25% glucose), 9.38 µg/mL. Also, the MBC100 was 2.35 µg/mL in data set [1] (pH 5.0, 0.25% glucose); 2.35 µg/mL in data set [1] (pH 5.5, 0.25% glucose); greater than 300 µg/mL in data set [1] (pH 5.5, 1% TSB); 150 µg/mL in data set [2] (pH 5.5, 0.25% glucose).
For the compound `N=C(N)NCCC[C@H](NC(=O)[C@H](CCCNC(=N)N)NC(=O)[C@H](CS)NC(=O)[C@H](CCCNC(=N)N)NC(=O)[C@H](Cc1c[nH]cn1)NC(=O)[C@H](CO)NC(=O)[C@H](CCCNC(=N)N)NC(=O)[C@H](CS)NC(=O)[C@H](CS)NC(=O)[C@H](CCCNC(=N)N)NC(=O)[C@H](Cc1c[nH]cn1)NC(=O)[C@H](Cc1c[nH]cn1)NC(=O)[C@@H](N)CO)C(=O)O` [LCE3B56-68] (H-SHHRCCRSHRCRR-OH; N-terminus and C-terminus assumed), in data set [3] (pH 5.5), the “S. aureus MBC90” value is 0.044 µM and the “S. aureus MBC100” value is greater than 88.7 µM. Further, in data set [3] (pH 5.5, 0.25% glucose), the MBC90 was found to be 0.075 µg/mL, the MBC100 was greater than 150 µg/mL and the max.killing result is reported as “max.killing: 99.3%”. In data set [3] (pH 5.5, 0.25% glucose (text)), this compound had an MBC90 of 0.044 µM. Further, the CC50 in data set [4] is > 32 µg/mL and > 18.9 µM. Also, in data set [5], the cytotoxic concentration (CC50) was greater than 300 µg/mL. The compound also displayed an HC50 at 1 h in data set [5] (human, washed erythrocytes from EDTA-blood, pH 7.4) greater than 113 µM. Further, the “Antifungal activity, C. albcans ATCC90028” value in data set [6] was “I (I-inactive)”. The “Antifungal activity, C. neoformans ATCC 208821” value in data set [7] is recorded as “A (A-active)”.
Regarding “GRHGSGLGHSSSHGQHGSGSGGSSSRGPY (Modified peptide derived from human hornerin (HR 1-17 R2677G))”, the MBC90 in data set [1] (pH 5.0, 0.25% glucose) was found to be 0.0375 µg/mL; in data set [2] (pH 5.5, 1% TSB), 300 µg/mL. Moreover, the MBC100 in data set [1] (pH 5.0, 0.25% glucose) is 0.15 µg/mL; in data set [2] (pH 5.5, 1% TSB) it was greater than 300 µg/mL.
As for “FITC-GRHGSGLGHSSSHGQHGSGSGR ({FITC′}-GRHGSGLGHSSSHGQHGSGSGR) [FITC-HR 1-18]”, the MBC90 in data set [1] (pH 5.0, 0.25% glucose) is 0.15 µg/mL; in data set [3] (pH 5.5, 0.25% glucose), 300 µg/mL; in data set [2] (pH 5.5, 0.25% glucose), 2.35 µg/mL. Besides, the MBC100 is 1.18 µg/mL in data set [1] (pH 5.0, 0.25% glucose); greater than 300 µg/mL in data set [3] (pH 5.5, 0.25% glucose); 75 µg/mL in data set [2] (pH 5.5, 0.25% glucose).

In general, CC50 refers to the concentration at which the toxic effect on the cells reaches its halfway point. A lower CC50 goes with greater toxicity to the cells. Broadly, the HC50 is the concentration giving 50% haemolysis. Low values mean more damage to red cells, high ones less damage to red cells.

The values are drawn from US11479587B2, “Cationic intrinsically disordered antimicrobial peptides” (priority 2016, dated 2022).
